What was measured:
[1] = biological target: T1, single chain tethered (tandem) HIV protease (HIV-1 M:B_HXB2R, UniProt P04585); experiment: Tandem HIV protease assay; format: biochemical; conditions: read-out: FITC KI; Table II; enzyme HIV1TANDEM
T1 construct: purified enzyme, FITC/biotin substrate assay
Protocol: In the enzyme inhibition assay described above, the sensitivity of Ki value determination is in part limited by the ability to continue to lower the enzyme concentration for compounds with high binding affinity. To prevent de-dimerization at low enzyme concentration, a tandemly linked enzyme is prepared in which the two monomers are covalently linked by an appropriate stretch of amino acid residues. Using the latter enzyme, the sensitivity of the inhibition assay is improved since much lower enzyme concentration can be utilized, as compared to the condition using the wild-type enzyme.
The starting inhibitor concentrations are determined based on preliminary enzyme inhibition screening results which estimate the expected potency of the inhibitor. Inhibitor concentrations are then prepared using the Biomek 1000 (Beckman) and the Quadra 96 (Tomtec). Substrate (biotinylated at the amino terminal arginine and fluorescently labeled with fluorescein at the carboxyl terminal lysine), inhibitor and the tandem enzyme are allowed to react in solution at pH 5.5 (buffers identical to those used with the native dimeric enzyme) in the dark for 96 hours. Streptavidin coated polystyrene beads are added to stop the reaction. The labeled cleavage product is separated from unreacted substrate via filtration. Residual fluorescence is quantitated with the Idexx SM2000 (Idexx) and the resulting data are analyzed using the NLLSF program.

HIV-1 protease [2] = biological target: T2, HIV-1 protease (Human immunodeficiency virus type 1 group M subtype B, UniProt P04585); experiment: biochemical; conditions: Table II, enzyme HIV-1
Summary of the method: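 Percent inhibition came from fluorescence of FITC-tagged cleavage product, separated by filtration from uncleaved substrate captured on streptavidin-coated beads. The enzyme (10 μl of 0.1 μM) and compound acted on a biotin/FITC dual-labelled peptide for one hour at room temperature in the dark. The reaction ran in 0.1 M sodium acetate, pH 5.5, with 1.0 M NaCl and 0.05% NP-40.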

HIV-1 protease [3] = biological target: T2, HIV-1 protease; experiment: biochemical; conditions: Table II; enzyme HIV-1; read-out: FITC KI
Summary of the method: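 Biotinylated, FITC-labelled peptide substrate cleaved in 0.1 M sodium acetate pH 5.5, 1.0 M NaCl, 0.05% NP-40, room temperature. Filtered labelled product read by fluorescence; nonlinear least-squares fit.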

**Q.** Which Ki [1] does the source give for `CC(C)(C)C(C1=C(O)CC(CCc2ccccc2)(CCC(F)(F)F)OC1=O)c1cccc(NS(=O)(=O)c2ccc(C#N)cn2)c1` (single isomer, unassigned) [Example 266, 5-cyano-N-[3-(R or S)-[1-[5,6-dihydro-4-hydroxy-2-oxo-6-(2-phenethyl)-6-(R or S)-(3,3,3-trifluoropropyl)-2H-pyran-3-yl]-2,2-dimethylpropyl]phenyl]-2-pyridinesulfonamide] here?
**A.** Its Ki is 0.033 nM.

**Q.** How did the Ki [1] turn out when `CC(C)(C)C(C1=C(O)CC(CCc2ccccc2)(CCC(F)(F)F)OC1=O)c1cccc(NS(=O)(=O)c2ccc(N)cn2)c1` (single isomer, unassigned) [Example 268, 5-amino-N-[3-(R or S)-[1-[5,6-dihydro-4-hydroxy-2-oxo-6-(2-phenethyl)-6-(R or S)-(3,3,3-trifluoropropyl)-2H-pyran-3-yl]-2,2-dimethylpropyl]phenyl]-2-pyridinesulfonamide] was run?
**A.** Its Ki is 0.835 nM.

**Q.** For `CC(C)(C)C(C1=C(O)CC(CCc2ccccc2)(CCC(F)(F)F)OC1=O)c1cccc(NS(=O)(=O)c2ccc(N)cn2)c1` (single isomer, unassigned) [Example 271, 5-amino-N-[3-(R or S)-[1-[5,6-dihydro-4-hydroxy-2-oxo-6-(2-phenethyl)-6-(R or S)-(3,3,3-trifluoropropyl)-2H-pyran-3-yl]-2,2-dimethylpropyl]phenyl]-2-pyridinesulfonamide], which Ki [1] is on record?
**A.** Its Ki is 0.051 nM.

**Q.** `CC(C)(C)C(C1=C(O)CC(CCc2ccccc2)(CCC(F)(F)F)OC1=O)c1cccc(NS(=O)(=O)c2ccc(C#N)cn2)c1` (single isomer, unassigned) [Example 272, 5-cyano-N-[3-(R or S)-[1-[5,6-dihydro-4-hydroxy-2-oxo-6-(2-phenethyl)-6-(R or S)-(3,3,3-trifluoropropyl)-2H-pyran-3-yl]-2,2-dimethylpropyl]phenyl]-2-pyridinesulfonamide] was tested. Which Ki [1] did it give?
**A.** The Ki was 3.6 nM.

**Q.** How did the Ki [1] turn out when `CCC(C1=C(O)CC(CCc2ccccc2)(CCc2ccccc2)OC1=O)c1cccc(NS(=O)(=O)c2ccc(C(F)(F)F)cn2)c1` (single isomer, unassigned) [Example 287, 5-Trifluoromethyl-N-[3-(R or S)-[1-[4-hydroxy-2-oxo-6,6-di-phenethyl-5,6-dihydro-2H-pyran-3-yl]-propyl]-phenyl]-2-pyridinesulfonamide] was run?
**A.** The Ki was 0.038 nM.

**Q.** With `CCC(C1=C(O)CC(CCc2ccccc2)(CCc2ccccc2)OC1=O)c1cccc(NS(=O)(=O)c2cc(C(F)(F)F)ccn2)c1` (single isomer, unassigned) [Example 289, 4-Trifluoromethyl-N-[3-(R or S)-[1-[4-hydroxy-2-oxo-6,6-di-phenethyl-5,6-dihydro-2H-pyran-3-yl]-propyl]-phenyl]-2-pyridinesulfonamide] as the compound, how does the Ki [1] read?
**A.** Its Ki is 0.133 nM.

**Q.** How did the Ki [1] turn out when `CCC(C1=C(O)CC(CCc2ccccc2)(CCc2ccccc2)OC1=O)c1cccc(NS(=O)(=O)c2cc(C(F)(F)F)ccn2)c1` (single isomer, unassigned) [Example 290, 4-Trifluoromethyl-N-[3-(R or S)-[1-[4-hydroxy-2-oxo-6,6-di-phenethyl-5,6-dihydro-2H-pyran-3-yl]-propyl]-phenyl]-2-pyridinesulfonamide] was run?
**A.** Its Ki is 1.88 nM.

**Q.** Which Ki [1] does the source give for `CCCC1(CCc2ccccc2)CC(O)=C(C(c2cccc(NS(=O)(=O)c3ccc(C(F)(F)F)cn3)c2)C(C)(C)C)C(=O)O1` (single isomer, unassigned) [Example 295, 5-Trifluoromethyl-N-[3 (R or S)-[1-[5,6-dihydro-4-hydroxy-2-oxo-6(R or S)-(2-phenethyl)-6(R or S)-n-propyl-2H-pyran-3-yl]-2,2-dimethylpropyl]-phenyl]-2-pyridinesulfonamide] here?
**A.** The Ki was 0.071 nM.

**Q.** With `CCCC1(CCc2ccccc2)CC(O)=C(C(c2cccc(NS(=O)(=O)c3cc(C(F)(F)F)ccn3)c2)C(C)(C)C)C(=O)O1` (single isomer, unassigned) [Example 296, 4-Trifluoromethyl-N-[3(R or S)-[1-[5,6-dihydro-4-hydroxy-2-oxo-6(R or S)-(2-phenethyl)-6(R or S)-n-propyl-2H-pyran-3-yl]-2,2-dimethylpropyl]-phenyl]-2-pyridinesulfonamide] as the compound, how does the Ki [1] read?
**A.** The Ki was 0.042 nM.

**Q.** How did the “PROTEASE % INHIB.” value (HIV-1 protease [2]; DOSE 0.123 (unit not given)) turn out when `CCCC1(CCc2ccc(F)cc2)CC(O)=C(C(c2cccc(NS(=O)(=O)c3cccc4cccnc34)c2)C(C)(C)C)C(=O)O1` (stereo not drawn) [Example 329, N-[3-{1-(4-Hydroxy-5,6-dihydro-2-oxo-6-(2-(4-fluorophenyl)ethyl)-6-propyl-2H-pyran-3-yl)-2,2-dimethylpropyl)phenyl]-8-quinolinesulfonamide] was run?
**A.** The value was 46.4%.

**Q.** What about the “PROTEASE % INHIB.” value (HIV-1 protease [2]; DOSE 0.370 (unit not given)) of the same compound?
**A.** Its value is 88.19%.

**Q.** What about the “PROTEASE % INHIB.” value (HIV-1 protease [2]; DOSE 1.100 (unit not given)) of the same compound?
**A.** Its value is 96.63%.

**Q.** What about the “PROTEASE % INHIB.” value (HIV-1 protease [2]; DOSE 3.300 (unit not given)) of the same compound?
**A.** Its value is 100.32%.

**Q.** What about the “PROTEASE % INHIB.” value (HIV-1 protease [2]; DOSE 10.000 (unit not given)) of the same compound?
**A.** The value was 97.07%.

**Q.** And the “PROTEASE % INHIB.” value (HIV-1 protease [2]; DOSE 30.000 (unit not given))?
**A.** Its value is 96.35%.

**Q.** What about the Ki (HIV-1 protease [3]) of the same compound?
**A.** The Ki was 12 nM.

**Q.** Which results are given for `CCC(C1=C(O)CC(CCc2ccc(F)cc2)(CCc2ccc(F)cc2)OC1=O)c1cccc(NS(=O)(=O)c2ccc(C(N)=O)cn2)c1` (stereo not drawn) [Example 333, N-[3-{1-(4-Hydroxy-5,6-dihydro-2-oxo-6,6-bis(2-(4-fluorophenyl)ethyl)-2H-pyran-3-yl)propyl}phenyl]-5-carbamoylpyridine-2-sulfonamide]?
**A.** PROTEASE % INHIB. (HIV-1 protease [2]; DOSE 0.123 (unit not given)): 66.73%; PROTEASE % INHIB. (HIV-1 protease [2]; DOSE 0.370 (unit not given)): 85.07%; PROTEASE % INHIB. (HIV-1 protease [2]; DOSE 1.100 (unit not given)): 85.12%; PROTEASE % INHIB. (HIV-1 protease [2]; DOSE 3.300 (unit not given)): 93.69%; PROTEASE % INHIB. (HIV-1 protease [2]; DOSE 10.000 (unit not given)): 89.38%; PROTEASE % INHIB. (HIV-1 protease [2]; DOSE 30.000 (unit not given)): 77.91%; Ki (HIV-1 protease [3]): 7.7 nM

**Q.** Which results are given for `Cn1cnc(S(=O)(=O)Nc2cccc(C(C3=C(O)CC(CCc4ccccc4)(CCc4ccccc4)OC3=O)C(C)(C)C)c2)c1` (stereo not drawn) [Example 343, N-[3-{1-(4-Hydroxy-5,6-dihydro-2-oxo-6,6-bis(2-phenylethyl)-2H-pyran-3-yl)-2,2-dimethylpropyl}phenyl]-1-methyl-1H-imidazole-4-sulfonamide]?
**A.** PROTEASE % INHIB. (HIV-1 protease [2]; DOSE 0.123 (unit not given)): 57.5%; PROTEASE % INHIB. (HIV-1 protease [2]; DOSE 0.370 (unit not given)): 76.83%; PROTEASE % INHIB. (HIV-1 protease [2]; DOSE 1.100 (unit not given)): 81.02%; PROTEASE % INHIB. (HIV-1 protease [2]; DOSE 3.300 (unit not given)): 86.43%; PROTEASE % INHIB. (HIV-1 protease [2]; DOSE 10.000 (unit not given)): 60.56%; PROTEASE % INHIB. (HIV-1 protease [2]; DOSE 30.000 (unit not given)): 46%; Ki (HIV-1 protease [3]): 2.9 nM

**Q.** For `CC(C)(C)C(C1=C(O)CC(CCc2ccccc2)(CCc2ccccc2)OC1=O)c1cccc(NS(=O)(=O)c2ccc(C#N)cn2)c1` (stereo not drawn) [Example 344, N-[3-{1-(4-Hydroxy-5,6-dihydro-2-oxo-6,6-bis(2-phenylethyl)-2H-pyran-3-yl)-2,2-dimethylpropyl}phenyl]-5-cyanopyridine-2-sulfonamide], which “PROTEASE % INHIB.” value (HIV-1 protease [2]; DOSE 0.123 (unit not given)) is on record?
**A.** The value was 47.37%.

**Q.** And the “PROTEASE % INHIB.” value (HIV-1 protease [2]; DOSE 0.370 (unit not given))?
**A.** The value was 72.84%.

**Q.** And the “PROTEASE % INHIB.” value (HIV-1 protease [2]; DOSE 1.100 (unit not given))?
**A.** The value was 81.17%.

**Q.** What about the “PROTEASE % INHIB.” value (HIV-1 protease [2]; DOSE 3.300 (unit not given)) of the same compound?
**A.** The value was 83.08%.

**Q.** And the “PROTEASE % INHIB.” value (HIV-1 protease [2]; DOSE 10.000 (unit not given))?
**A.** The value was 68.47%.

**Q.** And the “PROTEASE % INHIB.” value (HIV-1 protease [2]; DOSE 30.000 (unit not given))?
**A.** The value was 46.24%.

**Q.** And the Ki (HIV-1 protease [3])?
**A.** The Ki was 5.9 nM.

**Q.** What does the source list for `Nc1ccc(S(=O)(=O)Nc2cccc(CC3=C(O)CC(CCc4ccccc4)(CCc4ccccc4)OC3=O)c2)nc1` [Example 354, N-[3-{1-(4-Hydroxy-5,6-dihydro-2-oxo-6,6-bis(2-phenylethyl)-2H-pyran-3-yl)methyl}phenyl]-5-aminopyridine-2-sulfonamide]?
**A.** PROTEASE % INHIB. (HIV-1 protease [2]; DOSE 0.123 (unit not given)): < 10%; PROTEASE % INHIB. (HIV-1 protease [2]; DOSE 0.370 (unit not given)): 10.37%; PROTEASE % INHIB. (HIV-1 protease [2]; DOSE 1.100 (unit not given)): 26.79%; PROTEASE % INHIB. (HIV-1 protease [2]; DOSE 3.300 (unit not given)): 46.1%; PROTEASE % INHIB. (HIV-1 protease [2]; DOSE 10.000 (unit not given)): 54.97%; PROTEASE % INHIB. (HIV-1 protease [2]; DOSE 30.000 (unit not given)): 54.5%; Ki (HIV-1 protease [3]): 665 nM

**Q.** Which results are given for `CCC(C1=C(O)C2CCCCCC2OC1=O)c1cccc(NS(=O)(=O)c2ccc(C#N)cn2)c1` (stereo not drawn) [Example 372, 5-Cyano-N-[3-[1-(2,4a,5,6,7,8,9,9a-octahydro-4-hydroxy-2-oxocyclohepta[b]pyran-3-yl)propyl]phenyl]-2-pyridinesulfonamide]?
**A.** PROTEASE % INHIB. (HIV-1 protease [2]; DOSE 0.123 (unit not given)): 43.52%; PROTEASE % INHIB. (HIV-1 protease [2]; DOSE 0.370 (unit not given)): 86.68%; PROTEASE % INHIB. (HIV-1 protease [2]; DOSE 1.100 (unit not given)): 101.52%; PROTEASE % INHIB. (HIV-1 protease [2]; DOSE 3.300 (unit not given)): 99.56%; PROTEASE % INHIB. (HIV-1 protease [2]; DOSE 10.000 (unit not given)): 97.81%; PROTEASE % INHIB. (HIV-1 protease [2]; DOSE 30.000 (unit not given)): 106.18%; Ki (HIV-1 protease [3]): 4 nM
